Reference: patent publication US4889634A, “Dialysate solution containing hydroxypropyl-beta-cyclodextrin and method of using same” (priority 1988, dated 1989)

Tests used:
[1] = system: rats [Crl:CD(SD) BR strain]; assay: 14-day intravenous toxicity study in rats; format: in vivo, rat; conditions: rat, in vivo, iv, 200 mg/kg
Protocol: (§1) As part of the toxicological evaluation of HPBCD, control groups of animals were dosed with HPBCD alone.
Two groups (5/sex/group) of rats [Crl:CD(SD) BR strain] were used for this study. Control rats were given 200 mg of salt per kilogram of body weight intravenously administered in a saline control solution comprising 20% salt by weight in water. The saline control was administered every second day for 14 days (i.e. seven injections). The treated rats were given 200 mg of HPBCD per kilogram of body weight intravenously administered (200 mg/kg i.v. HPBCD) via a HPBCD solution containing 20% HPBCD by weight in water on the same injection schedule. […] At the end of the study the animals were necropsied, gross pathology was observed, histopathological samples were prepared and blood was drawn for clinical laboratory measurements.

Cynomolgus monkeys = conditions: cynomolgus monkey, in vivo
Protocol: as §1
Two groups (1/sex/group) of Cynomolgus monkeys were used for this study. Control monkeys were given 200 mg of salt per kilogram of body weight intravenously administered as a saline control solution of 20% by weight in water. The saline control was administered every second day for 14 days (i.e. 7 doses). The treated monkeys were given 200 mg/kg i.v. HPBCD on the same injection schedule. […] At the end of the study the animals were necropsied, gross pathology was observed, histopathology samples were prepared and blood was drawn for clinical laboratory measurements.

normal rats = assay: relative nephrotoxicity of HPBCD and BCD, intraperitoneal; format: in vivo, rat; conditions: for Mortality (died/total): BCD 0.75% w/v, HPBCD 1.5 and 3% w/v, 15 ml/100 g i.p.
Protocol: A first study was conducted to determine the relative nephrotoxicity of HPBCD and BCD. A control group using phosphate buffer solution was also included in the study.
Three groups of normal rats were utilized in this study. […] Group I rats were given the vehicle solution of phosphate buffer saline (PBS). Group II rats were subdivided into three sub-groups. The first sub-group received a solution having a concentration of 1.5% HPBCD, the second sub-group received a solution having a concentration of 3% HPBCD while the third sub-group received a solution having a concentration of 6% HPBCD. Group III rats were given a solution having a concentration of 0.75% BCD.
Animals from each group were sacrificed at 24 and 72 hours after injection of the peritoneal solution. The animals were sacrificed under general anesthesia and exsanguinated from the abdominal aorta. Plasma was separated and blood urea nitrogen and creatinine was measured and used as an index of renal toxicity of the solutions.

[2] = 1 day, BCD 0.75%, HPBCD 1.5 and 3%
[3] = 3 day, BCD 0.75%, HPBCD 1.5 and 3%

## hydroxypropyl-beta-cyclodextrin [HPBCD]
[1]
  Hemoglobin: 13.6 ± 3.06 G/DL
  Ionic phosphate: 8.3 ± 0.82 mg/dL
  Lymphocytes: 6.80 ± 2.42 × 10^3 /mm^3
  Mean corpuscle: 65.0 ± 2.70 fL
  Mean corpuscle hemoglobin: 18.4 ± 2.41 pg
  Monocytes: 0.05 ± 0.08 ×10^3 /mm^3
  Normal blood cells: 0.0 ± 0.00 /100 white blood cells
  Platelet count: 924 ± 395.20 × 10^3 /mm^3
  Potassium: 4.5 ± 0.16 mmol/L
  Red blood cell: 7.32 ± 1.00 × 10^6 /mm^3
  Segmented neutrophils: 0.49 ± 0.22 × 10^3 /mm^3
  Sodium: 141.0 ± 1.10 mmol/L
  Total bilirubin: 0.3 ± 0.05 mg/dL
  Total proteins: 6.5 ± 0.38 G/dL
Cynomolgus monkeys
  Changes in behavior: No changes in behavior were observed
  Changes in daily food consumption: No weight changes were observed (TABLE XIII) or changes in daily food consumption
  Gross pathological changes and histopathological findings: No gross pathological changes and no histopathological findings were observed
  Hematology and clinical chemistry values: No differences were seen
  Weight changes: No weight changes were observed
Cynomolgus monkeys; 200 mg/kg
  Basophils: 0.00 × 10^3 /mm^3
  Immature neutrophils: 0.00 × 10^3 mm^3
  Normal blood cells: 0.00 /100 white blood cells
Normal rats; 1 day
  Mortality (died/total): 0/6
Normal rats; [2]
  Kidney size: normal
  Kidney weight: normal
Normal rats; 1 day, BCD 0.75%, HPBCD 1.5 and 3%, Table III
  BUN: 14.8 mg/dL
Normal rats; 3 day
  Mortality (died/total): 0/6
Normal rats; [3]
  Kidney size: normal
  Kidney weight: normal
Normal rats; 3 day, HPBCD 1.5 and 3%, Table III
  BUN: 19.8 mg/dL
Normal rats; HPBCD 1.5%, 1d, n = 6
  BUN: 14.8 mg/dL
  Final body weight Wt (f): 210 g
  Initial body weight Wt (i): 213 g
  Left kidney weight (Lt kd): 867 mg
  Left kidney/body weight (Lt kd/wt): 4.11 mg/g
  Mortality: 0%
  Right kidney weight (Rt kd): 860 mg
  Right kidney/body weight (Rt kd/wt): 4.08 mg/g
Normal rats; HPBCD 1.5%, 3d, n = 6
  BUN: 19.8 mg/dL
  Final body weight Wt (f): 280 g
  Initial body weight Wt (i): 296 g
  Left kidney weight (Lt kd): 1027 mg
  Left kidney/body weight (Lt kd/wt): 3.68 mg/g
  Mortality: 0%
  Right kidney weight (Rt kd): 1009 mg
  Right kidney/body weight (Rt kd/wt): 3.61 mg/g
Normal rats; HPBCD 3%, 1d, n = 6
  BUN: 15.7 mg/dL
  Final body weight Wt (f): 301 g
  Initial body weight Wt (i): 322 g
  Left kidney weight (Lt kd): 1034 mg
  Left kidney/body weight (Lt kd/wt): 3.43 mg/g
  Mortality: 0%
  Right kidney weight (Rt kd): 1054 mg
  Right kidney/body weight (Rt kd/wt): 3.49 mg/g
Normal rats; HPBCD 3%, 3d, n = 6
  BUN: 19.9 mg/dL
  Final body weight Wt (f): 267 g
  Initial body weight Wt (i): 275 g
  Left kidney weight (Lt kd): 995 mg
  Left kidney/body weight (Lt kd/wt): 3.72 mg/g
  Mortality: 0%
  Right kidney weight (Rt kd): 1009 mg
  Right kidney/body weight (Rt kd/wt): 3.78 mg/g
Normal rats; HPBCD 6%, 1d, n = 6
  BUN: 14.5 mg/dL
  Final body weight Wt (f): 227 g
  Initial body weight Wt (i): 240 g
  Left kidney weight (Lt kd): 1076 mg
  Left kidney/body weight (Lt kd/wt): 4.73 mg/g
  Mortality: 0%
  Right kidney weight (Rt kd): 1066 mg
  Right kidney/body weight (Rt kd/wt): 4.70 mg/g
Normal rats; HPBCD Groups, 1 and 3 day, in words
  Rats died: None of the rats
